Experiments:
[1] = tested on: human retinal pigmented epithelial cells (ARPE-19); assay: LDH activity analysis in retinal pigmented epithelial cells; assay type: cell-based; details: young and senescent retinal pigmented epithelial cells
Procedure: (§1) Cytotoxicity against young and senescent cells was investigated with a lactate dehydrogenase (LDH) activity kit (Dojindo Molecular Technologies Inc.).
(§2) Young cells (1×10^3 cells/100 μl/well) or senescent cells (2×10^3 cells/100 μl/well) were dispensed into a 96-well plate, and then cultured overnight in a 37° C., 5% CO2 incubator. Zotarolimus and ABT263 were treated at each concentration, and then incubated for 4 days in a 37° C., 5% CO2 incubator.
(§3) After transferring the cell culture solution to a 1.5 ml tube, it was centrifuged at 4° C. and 12,000 rpm. 100 μl of the supernatant was dispensed into a 96-well plate, and 100 μl of the LDH measurement solution was added to each well, followed by reaction in a CO2 incubator for 30 minutes.
(§4) 50 μl of the LDH reaction stop solution was added, and absorbance was measured at 490 nm using a microplate reader. The level of LDH activity was expressed as a relative value based on the absorbance of the control group treated with only DMSO.

[2] = tested on: human umbilical vascular endothelial cells (HUVEC); assay: LDH activity in cell culture solution of vascular endothelial cells; assay type: cell-based; details: young and replicative senescent HUVEC; 4 days
Procedure: as §1, §2, §3, §4
In order to confirm whether the decrease in cell growth caused by zotarolimus as described above was due to cell death, LDH activity was investigated in the cell culture solution.

[3] = tested on: renal fibrosis induced by renal ischemia-reperfusion injury; assay: Renal fibrosis induced by renal ischemia-reperfusion injury in mice; assay type: in vivo, C57BL/6J mice
Procedure: Animal experiments were performed with the approval of the Animal Experimental Ethics Committee, Yeungnam University College of Medicine (YUMC-AEC2018-024). C57BL/6J 8-week-old male mice were anesthetized by intraperitoneal injection of 2.5% Avertin (0.025 ml/g body weight).
The anesthetized mice were placed on a hot plate at 37° C. and the left flank was incised to expose the left kidney. The renal arteriovenous blood vessels were ligated with a microaneurism clamp (Roboz), and whether the blood vessels were blocked or not was confirmed by the color of the kidneys. During the induction of ischemia, the body temperature of the mice was maintained at 36.5-37.5° C. After 35 minutes, the clamp was removed and it was confirmed that reperfusion occurred.
As a control, renal arteriovenous vessels were not ligated, and the rest was performed in the same manner as above. From 4 days after ischemia-reperfusion injury, 2.5 μl of 10 mM zotarolimus was diluted in 100 μl of phosphate buffer solution at intervals of 2 days and injected into the abdominal cavity 3 times (Zota group). […] Three mice were used for each group.
The left kidney in which ischemia-reperfusion injury was induced, was excised in half and fixed in 10% formalin solution or stored frozen in liquid nitrogen. […]
To confirm the degree of lipid peroxidation in tissues, malondialdehyde (MDA) was confirmed by the TBARS method (Garcia Y J, et al., Journal of neuroscience methods. 2005).
Briefly, 1.4 ml of TBARS solution [0.375% thiobarbituric acid (TBA), 15% trichloroacetic acid (TCA), 0.25 N HCl] was added to the tissue pulverization solution (0.3 mg protein/0.1 ml), and boiled for 15 minutes at 95-100° C. and centrifugation was performed at 4° C. and 12,000 rpm for 10 minutes, and the absorbance of the supernatant was confirmed at 540 nm.
Lipid hydroperoxides were identified by ferrous ion oxidation xylenol orange (FOX) method (Jiang Z Y, et al., Lipids. 1991).
0.9 ml of FOX reagent (100 μM xylenol orange, 25 mM H2SO4, 0.1 M sorbitol, 2.5 mM ferrous ammonium sulfate] was reacted at room temperature for 30 minutes and then centrifuged to measure the absorbance of the supernatant at 570 nm. […]
RIPA buffer was added to the tissue and pulverized with WiseTis homogenizer HG-15D (DAIHAN Scientific, Seoul, South Korea). Centrifugation was performed at 12,000 rpm at 4° C. for 20 minutes, and the supernatant was transferred to a new tube.
The protein concentration of the supernatant was quantified by the BCA method. After electrophoresis (SDS-PAGE) of 30 μg of protein, Western blot analysis was performed. After electrophoresis, the protein was transferred from the gel to a polyvinylidene fluoride membrane (Pall Corporation).
The membrane was treated with a 5% Difco™ skim milk solution (Becton, Dickinson and Company, USA) for 2 hours at room temperature, and the primary antibody was added, followed by reaction at room temperature for 2 hours. As the primary antibody, anti-p53 antibody, anti-p16 antibody, anti-actin antibody, and anti-GAPDH antibody were purchased from Santa Cruz Biotechnology, Inc. Anti-phosphorylated-Rb antibody was obtained from New England Biolabs (Ipswich, Mass., USA), and the anti-SOD2 antibody and anti-catalase antibody were obtained from Bioworld Technology Inc. (Louis Park, Minn., USA), anti-4-HNE antibody, anti-α-smooth muscle actin antibody, and anti-type I collagen antibody were purchased from Abcam (Cambridge, UK).
The membrane treated with the primary antibody was washed three times for 15 minutes each with TBST (20 mM Tris-HCl (pH 8.0), 137 mM NaCl, 0.1% Tween 20), and reacted for 60 minutes by treatment with the secondary antibody.
After washing for at least 60 minutes with TBST, protein expression was confirmed using an ECL detection kit (Elpis Biotech, Daejeon, South Korea).
The tissue fixed in 10% formalin solution was embedded with paraffin and cut into 4 μm to prepare a tissue sample. […]

[4] = i.p. 3 times from day 4, vs PBS group

With `CO[C@H]1C[C@@H]2CC[C@@H](C)[C@@](O)(O2)C(=O)C(=O)N2CCCC[C@H]2C(=O)O[C@H]([C@H](C)C[C@@H]2CC[C@H](n3cnnn3)[C@H](OC)C2)CC(=O)[C@H](C)/C=C(\C)[C@@H](O)[C@@H](OC)C(=O)[C@H](C)C[C@H](C)/C=C/C=C/C=C/1C` [zotarolimus] the “cytotoxicity by LDH activity analysis” value [1] was “cytotoxicity specific to senescent cells did not appear”, the “LDH activity in the cell culture solution” value [2] was “no difference in LDH activity” and the weight gain ([3]; body weight before injury vs 11th day, i.p. 3 times at 2-day intervals, vs Sham group) was “significantly reduced compared to that of the Sham group”. The “plasma BUN” value [3, 4] was “decreased”, the plasma creatinine [3, 4] was “decreased” and the “expression of SOD2” value ([3]; kidney tissue) was “increased”. The expression of catalase ([3]; kidney tissue) was “increased”, the superoxide ([3]; kidney tissue) was “significantly reduced” and the “damage to the kidney tubules” value ([3]; kidney tissue specimen, vs PBS group) was “significantly reduced”. For the same molecule, the “degree of lipid oxidation (lipid hydroperoxides and MDA)” value ([3]; kidney tissue, vs PBS group) was “significantly reduced”, the “degree of tissue fibrosis by trichrome staining” value ([3]; kidney tissue, vs PBS group) was “significantly reduced” and the “expression level of 4-HNE (Western blot)” value ([3]; kidney tissue, vs PBS group) was “significantly reduced”. The “expression level of p16 (Western blot)” value ([3]; kidney tissue, vs PBS group) was “significantly reduced”, the “expression of p53 (Western blot)” value ([3]; kidney tissue, vs PBS group) was “significantly reduced” and the “expression of pRb (Western blot)” value ([3]; kidney tissue, vs PBS group) was “significantly reduced”. For the same molecule, the “expression of type 1 collagen (COL1) (Western blot)” value ([3]; kidney tissue, vs PBS group) was “significantly reduced”, the “expression of α-SMA (Western blot)” value ([3]; kidney tissue, vs PBS group) was “significantly reduced” and the “lipofuscin staining intensity (Sudan Black B)” value ([3]; kidney tissue, vs PBS group) was “significantly reduced”.
